Data on two compounds can be found in ChEMBL document CHEMBL1681702, “Biological activity and ligand binding mode to the progesterone receptor of A-homo analogues of progesterone” (Bioorg Med Chem, 2011).

Molecules are shown by their SMILES. The source made the active and inactive calls. The rule behind the calls is not given here.

The target in test [1] is T1, Progesterone receptor (Homo sapiens) (UniProt P06401).
T1 sequence (whole entry): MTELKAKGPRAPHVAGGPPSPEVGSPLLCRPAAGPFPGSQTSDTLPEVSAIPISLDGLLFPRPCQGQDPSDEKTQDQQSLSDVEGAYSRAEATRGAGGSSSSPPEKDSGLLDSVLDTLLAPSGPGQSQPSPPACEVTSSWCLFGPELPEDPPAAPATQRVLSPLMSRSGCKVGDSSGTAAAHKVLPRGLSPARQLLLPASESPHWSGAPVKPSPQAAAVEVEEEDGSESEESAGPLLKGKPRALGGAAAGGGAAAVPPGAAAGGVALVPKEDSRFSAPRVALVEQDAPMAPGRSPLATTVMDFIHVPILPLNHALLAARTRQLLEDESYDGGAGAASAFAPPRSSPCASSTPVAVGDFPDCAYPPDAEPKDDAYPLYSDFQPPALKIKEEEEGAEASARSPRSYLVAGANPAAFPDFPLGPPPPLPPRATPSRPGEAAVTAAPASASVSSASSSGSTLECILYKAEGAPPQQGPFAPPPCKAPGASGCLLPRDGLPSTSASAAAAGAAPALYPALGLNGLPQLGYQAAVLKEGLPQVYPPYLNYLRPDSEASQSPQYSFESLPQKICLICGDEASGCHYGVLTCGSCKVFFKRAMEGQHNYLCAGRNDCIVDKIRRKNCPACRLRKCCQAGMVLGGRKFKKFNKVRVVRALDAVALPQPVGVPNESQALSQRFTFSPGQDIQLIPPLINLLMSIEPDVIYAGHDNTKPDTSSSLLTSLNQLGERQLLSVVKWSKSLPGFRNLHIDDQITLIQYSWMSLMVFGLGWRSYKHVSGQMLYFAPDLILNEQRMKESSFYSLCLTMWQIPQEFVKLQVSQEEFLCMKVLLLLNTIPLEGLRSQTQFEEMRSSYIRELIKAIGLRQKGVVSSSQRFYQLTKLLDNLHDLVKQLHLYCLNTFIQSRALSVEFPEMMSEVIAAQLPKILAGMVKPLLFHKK
Briefly: Agonist activity at human progesterone receptor in human T47D cells assessed as induction of Bcl-xL gene expression at 10^-6 M after 6 hrs by quantitative PCR. The format is functional, cell-based.

In test [2] the target is T2, Mineralocorticoid receptor (Homo sapiens) (UniProt P08235).
T2 sequence (whole entry): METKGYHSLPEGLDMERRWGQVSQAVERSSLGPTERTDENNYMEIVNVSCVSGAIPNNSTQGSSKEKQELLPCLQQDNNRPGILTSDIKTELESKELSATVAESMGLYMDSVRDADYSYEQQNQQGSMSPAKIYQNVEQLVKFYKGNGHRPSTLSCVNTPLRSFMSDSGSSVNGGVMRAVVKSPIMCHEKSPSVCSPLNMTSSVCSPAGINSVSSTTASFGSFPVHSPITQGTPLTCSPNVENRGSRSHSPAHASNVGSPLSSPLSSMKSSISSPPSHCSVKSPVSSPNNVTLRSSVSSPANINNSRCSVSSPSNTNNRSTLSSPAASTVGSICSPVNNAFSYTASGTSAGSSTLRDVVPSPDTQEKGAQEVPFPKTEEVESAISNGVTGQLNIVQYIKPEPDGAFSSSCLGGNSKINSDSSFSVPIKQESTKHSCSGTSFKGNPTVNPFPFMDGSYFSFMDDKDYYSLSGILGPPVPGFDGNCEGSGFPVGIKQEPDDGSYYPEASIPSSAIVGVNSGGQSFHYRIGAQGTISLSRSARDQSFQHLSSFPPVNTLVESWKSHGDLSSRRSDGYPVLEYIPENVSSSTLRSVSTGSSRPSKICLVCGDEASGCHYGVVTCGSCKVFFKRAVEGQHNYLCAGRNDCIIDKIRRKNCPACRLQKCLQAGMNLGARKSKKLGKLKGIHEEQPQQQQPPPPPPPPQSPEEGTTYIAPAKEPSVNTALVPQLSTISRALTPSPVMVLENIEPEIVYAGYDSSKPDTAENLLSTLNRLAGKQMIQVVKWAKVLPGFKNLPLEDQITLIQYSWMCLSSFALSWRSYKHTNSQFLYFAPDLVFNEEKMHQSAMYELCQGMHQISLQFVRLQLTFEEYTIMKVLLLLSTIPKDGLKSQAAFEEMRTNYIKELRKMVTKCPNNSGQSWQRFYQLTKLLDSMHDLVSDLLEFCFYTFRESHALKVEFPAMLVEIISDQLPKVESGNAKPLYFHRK
Description: Antagonist activity at human MR expressed in human Cos1 cells co-transfected with luciferase reporter gene linked to MMTV promoter and pCMV-LacZ vector assessed as effect on aldosterone-induced activity at 10^-5 M after 24 hrs. It counts as functional, cell-based.

Test [3] addresses T1, Progesterone receptor (Homo sapiens). Description: Transactivation activity at human progesterone receptor isoform B expressed in human Cos1 cells co-transfected with luciferase reporter gene linked to MMTV promoter at 10^-6 M after 24 hrs. The format is cell-based.
Test [4] has the same target. Description: Transactivation activity at human progesterone receptor isoform B expressed in human Cos1 cells co-transfected with luciferase reporter gene linked to MMTV promoter at 10^-7 M after 24 hrs. The format is cell-based.
Test [5] has as its target T2, Mineralocorticoid receptor (Homo sapiens). Description: Transactivation activity at human MR expressed in human Cos1 cells co-transfected with luciferase reporter gene linked to MMTV promoter and pCMV-LacZ vector at 10^-5 M after 24 hrs. It counts as cell-based.

As to `CC(=O)[C@H]1CC[C@H]2[C@@H]3CC=C4CCC(=O)CC[C@]4(C)[C@H]3CC[C@]12C`, the result in test [1], in test [3] and in test [4] was Active. Besides, the outcome in test [2] and in test [5] was inactive.

For `CC(=O)[C@H]1CC[C@H]2[C@@H]3CC=C4CC(=O)CCC[C@]4(C)[C@H]3CC[C@]12C`, the outcome in test [1], in test [3] and in test [4] was Active. Moreover, the result in test [2] and in test [5] was inactive.
